Measured values: US20250295757A1 (priority 2022, published 2025)

Test system: SARS-CoV-2 (WT and OTS virus) in VeroET cells
Format: cell-based

O=c1[nH]cc(F)c(=O)[nH]1 [5-Fluorouracil]
number of infectious virus particles in a TCID50 virus assay: reduces

CC(C)C(=O)OC[C@H]1O[C@@H](n2ccc(NO)nc2=O)[C@H](O)[C@@H]1O [Malnupiravir]
number of infectious virus particles in a TCID50 virus assay: reduces
